Data from PMC9518259, “Design and synthesis of benzothiazole-based SLC-0111 analogues as new inhibitors for the cancer-associated carbonic anhydrase isoforms IX and XII” (Journal of Enzyme Inhibition and Medicinal Chemistry, 2022).
Read-outs that look alike come from different tables or passages of the source.

What was measured:
[1] = molecular target: T1, hCA I (Homo sapiens, UniProt P00915); assay: stopped-flow CO2 hydrase assay; assay type: biochemical
T1 construct: gene CA1
Text: stopped-flow CO2 hydrase assay on hCA I

[2] = molecular target: T2, hCA IX (Homo sapiens, UniProt Q16790); assay: stopped-flow CO2 hydrase assay; assay type: biochemical
T2 construct: gene CA9

[3] = molecular target: T3, hCA II (Homo sapiens, UniProt P00918); assay: stopped-flow CO2 hydrase assay; assay type: biochemical
T3 construct: gene CA2
Text: stopped-flow CO2 hydrase assay on hCA II

[4] = molecular target: T4, hCA XII (Homo sapiens, UniProt O43570); assay: stopped-flow CO2 hydrase assay; assay type: biochemical
T4 construct: gene CA12

[5] = stopped-flow CO2 hydrase assay; assay type: biochemical, Homo sapiens; conditions: read-out: KI (nM)^a / hCA I
[6] = stopped-flow CO2 hydrase assay; assay type: biochemical, Homo sapiens; conditions: read-out: KI (nM)^a / hCA I; remark: listed apart in the source

T1 sequence (P00915 2-261): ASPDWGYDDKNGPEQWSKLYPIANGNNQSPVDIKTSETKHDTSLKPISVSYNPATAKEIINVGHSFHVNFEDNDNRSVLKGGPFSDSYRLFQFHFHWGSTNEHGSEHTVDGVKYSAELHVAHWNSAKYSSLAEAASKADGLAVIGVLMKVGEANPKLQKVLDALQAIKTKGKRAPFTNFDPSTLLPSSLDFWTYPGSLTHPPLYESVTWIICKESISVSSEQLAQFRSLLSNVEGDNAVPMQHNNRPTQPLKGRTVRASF
T4 sequence (O43570 25-354): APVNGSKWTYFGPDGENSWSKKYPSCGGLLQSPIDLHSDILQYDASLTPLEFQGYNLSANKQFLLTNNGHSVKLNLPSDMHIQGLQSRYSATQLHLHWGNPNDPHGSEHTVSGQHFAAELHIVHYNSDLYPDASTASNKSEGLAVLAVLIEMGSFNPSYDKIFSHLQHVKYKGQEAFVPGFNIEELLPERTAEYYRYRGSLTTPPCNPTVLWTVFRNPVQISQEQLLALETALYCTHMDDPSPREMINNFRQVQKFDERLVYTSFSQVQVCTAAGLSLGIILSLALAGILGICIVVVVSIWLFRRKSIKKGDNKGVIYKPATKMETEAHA

Row | Compound | Ki [1] [nM] | Ki ([2]; read-out: KI (nM)^a / hCA IX) [nM] | Ki [3] [nM] | Ki [4] [nM] | Ki [5] [nM] | Ki ([2]; read-out: KI (nM)^a / hCA I) [nM] | Ki [6] [nM]
1 | NS(=O)(=O)c1ccccc1NC(=O)Nc1nc2ccccc2s1 [8a] | 12600 | 65.3 | 785 | 41.2 |  |  | 
2 | NS(=O)(=O)c1cccc(NC(=O)Nc2nc3ccccc3s2)c1 [8b] | 4040 | 48.9 | 653 | 57.5 |  |  | 
3 | NS(=O)(=O)c1ccc(NC(=O)Nc2nc3ccccc3s2)cc1 [8c] | 362 | 31.5 | 54.1 | 29.3 |  |  | 
4 | NS(=O)(=O)c1ccc(CNC(=O)Nc2nc3ccccc3s2)cc1 [compound 10, 10] | 946 | 58.8 | 204 | 51.2 |  |  | 
5 | NS(=O)(=O)c1ccc(CCNC(=O)Nc2nc3ccccc3s2)cc1 [compound 12, 12] | 61.5 | 16.4 | 28.5 | 34.7 |  |  | 

Other lines, results leading:

Row | Ki [1] [nM] | Ki ([2]; read-out: KI (nM)^a / hCA IX) [nM] | Ki [3] [nM] | Ki [4] [nM] | Ki [5] [nM] | Ki ([2]; read-out: KI (nM)^a / hCA I) [nM] | Ki [6] [nM] | Compound
6 | 68100 | 44600 | 75900 | 39900 |  |  |  | O=C(Nc1nc2ccccc2s1)Nc1ccccc1C(=O)O [14a]
7 | 82800 | 16300 | 94100 | 9140 |  |  |  | O=C(Nc1cccc(C(=O)O)c1)Nc1nc2ccccc2s1 [14b]
8 | 11800 | 2410 | 9470 | 8540 |  |  |  | O=C(Nc1ccc(C(=O)O)cc1)Nc1nc2ccccc2s1 [14c]
9 | > 100000 | 56100 |  | 32500 | > 100000 |  |  | O=C(Nc1ccc(S(=O)(=O)Nc2nccs2)cc1)Nc1nc2ccccc2s1 [16a]
10 | > 100000 |  |  |  | > 100000 | > 100000 | > 100000 | Cc1noc(NS(=O)(=O)c2ccc(NC(=O)Nc3nc4ccccc4s3)cc2)c1C [16b]
